Test results taken from publication PMC4813245, “Discovery of Dual ETA/ETB Receptor Antagonists from Traditional Chinese Herbs through in Silico and in Vitro Screening” (International Journal of Molecular Sciences, 2016).
Where two headings read alike, the source gives them in different places. Non-standard residues stand in square brackets, D forms with d. Residues, ends and D or L forms follow the SMILES beside them.

Tests used:
[1] = target: T1, ETB receptor (ETBR) (Homo sapiens, UniProt P24530); assay: ET-1-induced intracellular calcium mobilization (Fluo-4) in HEK293/ETBR cells, antagonist mode; type: cell-based
T1 construct: gene EDNRB
T1 sequence (P24530 27-442): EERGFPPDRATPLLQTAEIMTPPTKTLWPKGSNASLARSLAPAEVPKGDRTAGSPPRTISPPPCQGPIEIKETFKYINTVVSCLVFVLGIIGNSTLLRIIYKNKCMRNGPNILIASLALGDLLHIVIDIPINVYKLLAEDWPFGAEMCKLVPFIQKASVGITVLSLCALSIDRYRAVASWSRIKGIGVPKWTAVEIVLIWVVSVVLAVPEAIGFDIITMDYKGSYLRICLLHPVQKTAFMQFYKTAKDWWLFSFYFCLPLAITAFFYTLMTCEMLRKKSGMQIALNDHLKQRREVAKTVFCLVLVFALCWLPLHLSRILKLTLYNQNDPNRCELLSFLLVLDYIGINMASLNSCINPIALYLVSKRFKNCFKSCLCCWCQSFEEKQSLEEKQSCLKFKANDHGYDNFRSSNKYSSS

[2] = target: T2, ETA receptor (ETAR) (Homo sapiens, UniProt P25101); assay: ET-1-induced intracellular calcium mobilization (Fluo-4) in HEK293/ETAR cells, antagonist mode; type: cell-based
T2 construct: gene EDNRA
T2 sequence (P25101 21-427): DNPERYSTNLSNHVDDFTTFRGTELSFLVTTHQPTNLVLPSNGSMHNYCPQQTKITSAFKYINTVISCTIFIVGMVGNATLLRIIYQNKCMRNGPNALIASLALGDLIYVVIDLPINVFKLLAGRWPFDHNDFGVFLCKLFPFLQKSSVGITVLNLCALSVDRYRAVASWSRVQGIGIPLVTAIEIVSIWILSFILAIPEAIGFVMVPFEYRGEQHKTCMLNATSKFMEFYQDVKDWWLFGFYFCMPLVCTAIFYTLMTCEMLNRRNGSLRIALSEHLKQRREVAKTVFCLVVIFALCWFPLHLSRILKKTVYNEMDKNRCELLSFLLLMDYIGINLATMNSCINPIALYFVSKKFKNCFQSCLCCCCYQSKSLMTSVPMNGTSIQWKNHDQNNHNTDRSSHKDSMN

SMILES | IC50 [1] [µM] | IC50 [2] [µM] | IC50 ([1]; read-out: IC50) [µM]
COc1cccc2c1cc([N+](=O)[O-])c1c(C(=O)O)cc3c(c12)OCO3 [Aristolochic acid A] | 7.4 | 7.91 | –
CC(C)C[C@@H]1NC(=O)[C@@H](C(C)C)NC(=O)[C@@H]2CCCN2C(=O)[C@@H](CC(=O)O)NC(=O)[C@@H](Cc2c[nH]c3ccccc23)NC1=O [BQ-123] (cyclo(L[dW][dD]P[dV])) | – | 0.00027 | –
CCCC[C@@H](NC(=O)[C@@H](Cc1cn(C(=O)OC)c2ccccc12)NC(=O)[C@H](CC(C)(C)C)NC(=O)N1[C@H](C)CCC[C@@H]1C)C(=O)O [BQ-788] | – | – | 5e-05
